The values that follow come from patent US9024027B2, “Derivatives of 1-phenyl-2-pyridinyl alkyl alcohols as phosphodiesterase inhibitors” (Chiesi Farmaceutici S.p.A., priority 2011, dated 2015).

Where a name gives a salt, the structure may show the parent alone.

In the test the test system is LPS-induced TNF-α release in peripheral blood mononuclear cells (PBMCs). Put plainly: In vitro determination of PDE4 inhibitory activity in the PBMCs assay (LPS-induced TNF-α release). The format is cell-based. To be noted: PBMC; human PBMCs, LPS 3 ng/ml, 18 hours; read-out: PDE4 inhibition (IC50, 50% inhibition of LPS-induced TNF-α release). The procedure: The assay, which is based on the known inhibitory activity exerted by PDE4 inhibitors on the lipopolyshaccarides (LPS)-induced tumour necrosis factor-alpha (TNF-α release in peripheral blood mononuclear cells (PBMCs), was performed according to a method previously described (Hatzelmann A et al., J. Pharmacol. Exp. Ther., 2001; 297:267-279; and Draheim R et al., J. Pharmacol. Exp. Ther., 2004; 308:555-563, both of which are incorporated herein by reference in their entireties. Cryopreserved human PBMCs, (100 μl/well) were incubated in 96-well plates (10^5 cells/well), for 30 minutes, in the presence or absence (50 microl) of the test compounds whose concentrations ranged from 10^−12 M to 10^−6 M or from 10^−13 M to 10^−7 M. Subsequently, LPS (3 ng/ml) was added. After 18 hours of incubation at 37° C. in a humidified incubator under an atmosphere of 95% air and 5% CO2, culture medium was collected and TNF-α measured by ELISA.
The results of the tested compounds, representatives of the invention, expressed as mean±95% confidence limits of the molar concentration of the test compound producing 50% inhibition of LPS-induced TNF-α release (IC50) are shown in the following Table: […]
In general, IC50 refers to the concentration that inhibits the measured activity by half. Turning to `CS(=O)(=O)Nc1ccc2c(ccn2CC(=O)O[C@@H](Cc2c(Cl)c[n+]([O-])cc2Cl)c2ccc(OC(F)F)c(OCC3CC3)c2)c1` [Compound 76, (S)-3,5-dichloro-4-(2-(3-(cyclopropylmethoxy)-4-(difluoromethoxy)phenyl)-2-(2-(5-(methylsulfonamido)-1H-indol-1-yl)acetoxy)-ethyl)pyridine 1-oxide], the IC50 was under 1 nM.
In the case of `CS(=O)(=O)Nc1cccc2c1ccn2CC(=O)O[C@@H](Cc1c(Cl)c[n+]([O-])cc1Cl)c1ccc(OC(F)F)c(OCC2CC2)c1` [Compound 84, (S)-3,5-dichloro-4-(2-(3-(cyclopropylmethoxy)-4-(difluoromethoxy)phenyl)-2-(2-(4-(methylsulfonamido)-1H-indol-1-yl)acetoxy)-ethyl)pyridine 1-oxide] it was under 1 nM; in that of `CS(=O)(=O)Nc1cn(CC(=O)O[C@@H](Cc2c(Cl)c[n+]([O-])cc2Cl)c2ccc(OC(F)F)c(OCC3CC3)c2)c2ccccc12` [Compound 93, (S)-3,5-dichloro-4-(2-(3-(cyclopropylmethoxy)-4-(difluoromethoxy)phenyl)-2-(2-(3-(methylsulfonamido)-1H-indol-1-yl)acetoxy)ethyl)pyridine 1-oxide], 1 to 10 nM.
In the case of `CS(=O)(=O)Nc1ccc2c(c1)C(=O)C(=O)N2CC(=O)O[C@@H](Cc1c(Cl)c[n+]([O-])cc1Cl)c1ccc(OC(F)F)c(OCC2CC2)c1` [Compound 99, (S)-3,5-dichloro-4-(2-(3-(cyclopropylmethoxy)-4-(difluoromethoxy)phenyl)-2-(2-(5-(methylsulfonamido)-2,3-dioxoindolin-1-yl)acetoxy)ethyl)pyridine 1-oxide] it was 1 to 10 nM; in that of `O=C(CN1C(=O)c2ccccc2S1(=O)=O)O[C@@H](Cc1c(Cl)c[n+]([O-])cc1Cl)c1ccc(OC(F)F)c(OCC2CC2)c1` [Compound 102, (S)-3,5-dichloro-4-(2-(3-(cyclopropylmethoxy)-4-(difluoromethoxy)phenyl)-2-(2-(1,1-dioxido-3-oxobenzo[d]isothiazol-2(3H)-yl)acetoxy)ethyl)pyridine 1-oxide], under 1 nM; in that of `COc1cc2c(cc1OC)CN(CC(=O)O[C@@H](Cc1c(Cl)c[n+]([O-])cc1Cl)c1ccc(OC(F)F)c(OCC3CC3)c1)CC2` [Compound 105, (S)-3,5-dichloro-4-(2-(3-(cyclopropylmethoxy)-4-(difluoromethoxy)phenyl)-2-(2-(6,7-dimethoxy-3,4-dihydroisoquinolin-2(1H)-yl)acetoxy)ethyl)pyridine 1-oxide], under 1 nM.
Regarding `CS(=O)(=O)Nc1ccc2c(c1)CC(=O)N2CC(=O)O[C@@H](Cc1c(Cl)c[n+]([O-])cc1Cl)c1ccc(OC(F)F)c(OCC2CC2)c1` [Compound 112, (S)-3,5-dichloro-4-(2-(3-(cyclopropylmethoxy)-4-(difluoromethoxy)phenyl)-2-(2-(5-(methylsulfonamido)-2-oxoindolin-1-yl)acetoxy)ethyl)pyridine 1-oxide], the IC50 was under 1 nM.
On to `COc1ccc2c(c1)CC(=O)N2CC(=O)O[C@@H](Cc1c(Cl)c[n+]([O-])cc1Cl)c1ccc(OC(F)F)c(OCC2CC2)c1` [Compound 117, (S)-3,5-dichloro-4-(2-(3-(cyclopropylmethoxy)-4-(difluoromethoxy)phenyl)-2-(2-(5-methoxy-2-oxoindolin-1-yl)acetoxy)-ethyl)pyridine 1-oxide], for which the IC50 is under 1 nM.
Turning to `CS(=O)(=O)Nc1ccc2c(c1)CCN2CC(=O)O[C@@H](Cc1c(Cl)c[n+]([O-])cc1Cl)c1ccc(OC(F)F)c(OCC2CC2)c1` [Compound 131, (S)-3,5-dichloro-4-(2-(3-(cyclopropylmethoxy)-4-(difluoromethoxy)phenyl)-2-(2-(5-(methylsulfonamido)indolin-1-yl)acetoxy)-ethyl)pyridine 1-oxide], the IC50 was in the range of 1 to 10 nM.
For the molecule `O=C(CN1C(=O)C(=O)c2ccc(N3CCOCC3)cc21)O[C@@H](Cc1c(Cl)c[n+]([O-])cc1Cl)c1ccc(OC(F)F)c(OCC2CC2)c1` [Compound 142, (S)-3,5-dichloro-4-(2-(3-(cyclopropylmethoxy)-4-(difluoromethoxy)phenyl)-2-(2-(6-morpholino-2,3-dioxoindolin-1-yl)acetoxy)ethyl)pyridine 1-oxide], the half-maximal inhibitory concentration (IC50) is 1 to 10 nM.
With `COc1cc2c(cc1OC)C(=O)N(CC(=O)O[C@@H](Cc1c(Cl)c[n+]([O-])cc1Cl)c1ccc(OC(F)F)c(OCC3CC3)c1)C2=O` [Compound 156, (S)-3,5-dichloro-4-(2-(3-(cyclopropylmethoxy)-4-(difluoromethoxy)phenyl)-2-(2-(5,6-dimethoxy-1,3-dioxoisoindolin-2-yl)acetoxy)ethyl)pyridine 1-oxide], the IC50 is under 1 nM.
As to `CS(=O)(=O)Nc1cccc2c1C(=O)N(CC(=O)O[C@@H](Cc1c(Cl)c[n+]([O-])cc1Cl)c1ccc(OC(F)F)c(OCC3CC3)c1)C2=O` [Compound 162, (S)-3,5-dichloro-4-(2-(3-(cyclopropylmethoxy)-4-(difluoromethoxy)phenyl)-2-(2-(4-(methylsulfonamido)-1,3-dioxoisoindolin-2-yl)acetoxy)ethyl)pyridine 1-oxide], the IC50 was under 1 nM.
The value for `CS(=O)(=O)Nc1ccc2c(c1)C(=O)N(CC(=O)O[C@@H](Cc1c(Cl)c[n+]([O-])cc1Cl)c1ccc(OC(F)F)c(OCC3CC3)c1)C2=O` [Compound 167, (S)-3,5-dichloro-4-(2-(3-(cyclopropylmethoxy)-4-(difluoromethoxy)phenyl)-2-(2-(5-(methylsulfonamido)-1,3-dioxoisoindolin-2-yl)acetoxy)ethyl)pyridine 1-oxide] was under 1 nM.
As to `O=C(CN1C(=O)c2ccc(NO)cc2C1=O)O[C@@H](Cc1c(Cl)c[n+]([O-])cc1Cl)c1ccc(OC(F)F)c(OCC2CC2)c1` [Compound 169, (S)-3,5-dichloro-4-(2-(3-(cyclopropylmethoxy)-4-(difluoromethoxy)phenyl)-2-(2-(5-(hydroxyamino)-1,3-dioxoisoindolin-2-yl)acetoxy)ethyl)pyridine 1-oxide], the IC50 is under 1 nM.
The value for `O=C(CN1C(=O)c2cccc(NO)c2C1=O)O[C@@H](Cc1c(Cl)c[n+]([O-])cc1Cl)c1ccc(OC(F)F)c(OCC2CC2)c1` [Compound 170] was under 1 nM.
On to `COCC(=O)Nc1cccc2c1C(=O)N(CC(=O)O[C@@H](Cc1c(Cl)c[n+]([O-])cc1Cl)c1ccc(OC(F)F)c(OCC3CC3)c1)C2=O` [Compound 173, (S)-3,5-dichloro-4-(2-(3-(cyclopropylmethoxy)-4-(difluoromethoxy)phenyl)-2-(2-(4-(2-methoxyacetamido)-1,3-dioxoisoindolin-2-yl)acetoxy)ethyl)pyridine 1-oxide], for which the IC50 was under 1 nM.
For `CS(=O)(=O)N(CCN1CCOCC1)c1cccc2c1C(=O)N(CC(=O)O[C@@H](Cc1c(Cl)c[n+]([O-])cc1Cl)c1ccc(OC(F)F)c(OCC3CC3)c1)C2=O` [Compound 176, (S)-3,5-dichloro-4-(2-(3-(cyclopropylmethoxy)-4-(difluoromethoxy)phenyl)-2-(2-(4-(N-(2-morpholinoethyl)methylsulfonamido)-1,3-dioxoisoindolin-2-yl)acetoxy)ethyl)pyridine 1-oxide 2,2,2-trifluoroacetic acid salt], the IC50 was in the range of 1 to 10 nM.
